Results reported in PMC2225441, “Partial Restoration of Mutant Enzyme Homeostasis in Three Distinct Lysosomal Storage Disease Cell Lines by Altering Calcium Homeostasis” (PLoS Biology, 2008).
pIC50: −log10 of the molar value.

Experiments:
L444P GC = assay: intact cell GC activity assay in homozygous L444P GC patient-derived fibroblasts; type: cell-based, human; details: for L444P GC activity, screen of VGCC blockers, ionotropic glutamate receptor inhibitors and other calcium channel blockers: intact cell GC activity assay, only the named compounds increased activity; for L444P GC activity, screen of fifteen thermosensitive TRP channel modulators: intact cell GC enzyme assay, 5-d incubation, Figure S1, only the named compound increased activity; for maximum increase in L444P GC activity: 30 μM; for effect on L444P GC activity: 0.3–100 μM
Ca^2+ channel = details: previously reported; read-out: Ca^2+ channel blocker IC50; cited from earlier work
L444P fibroblasts = assay: cytotoxicity to L444P fibroblasts; type: cell-based, human; details: high concentrations (>10 μM)
ΔF508 CFTR = details: SERCA inhibitor; cited from earlier work
[1] = 7 d, intact cell assay, Figure 3D

Row | SMILES | L444P GC activity, screen of VGCC blockers, ionotropic glutamate receptor inhibitors and other calcium channel blockers (L444P GC) | L444P GC activity, screen of fifteen thermosensitive TRP channel modulators (L444P GC) | other results
1 | O=C(O)c1cc(=O)c2c(Cl)cc(Cl)cc2[nH]1 [5,7-dichlorokynurenic acid] | only diltiazem and verapamil |  | 
2 | CCOC(=O)C(N)/C=C(\C)CP(=O)(O)O (stereo not shown) [CGP 39551] | only diltiazem and verapamil |  | 
3 | NCCOB(c1ccccc1)c1ccccc1 [Compound 2-APB, 2-APB] |  | Only ruthenium red notably increased | 
4 | COc1ccc([C@@H]2Sc3ccccc3N(CCN(C)C)C(=O)[C@@H]2O)cc1 [Compound 2] |  |  | maximum increase of L444P lysosomal GC activity (L444P GC; 10 μM, 7 d, intact cell assay, Figure 3D): 2.1 fold
5 | CN(C)CCN1C(=O)[C@H](O)[C@H](c2ccc(O)cc2)Sc2ccccc21 [Compound 3] |  |  | maximum increase in L444P GC activity (L444P GC; [1]): 1.3 fold; pIC50 (Ca^2+ channel): 4.34
6 | CNCCN1C(=O)[C@H](O)[C@H](c2ccc(O)cc2)Sc2ccccc21 [Compound 4] |  |  | maximum increase in L444P GC activity (L444P GC; [1]): 1.2 fold; pIC50 (Ca^2+ channel): 3.90
7 | CCCCCCCCCC(=O)O[C@@H]1[C@@H](C)[C@@]2(O)[C@@H](C=C(CO)C[C@@]3(O)C(=O)C(C)=C[C@@H]23)[C@@H]2C(C)(C)[C@]12OC(=O)CCCCCCCCC [Compound 4α-PDD, 4α-PDD] |  | Only ruthenium red notably increased | 
8 | COc1ccc([C@@H]2Sc3ccccc3NC(=O)[C@@H]2OC(C)=O)cc1 [Compound 5] |  |  | effect on L444P GC activity (L444P GC; [1]): do not increase L444P GC activity; toxicity to L444P fibroblasts (L444P fibroblasts): toxic
9 | COc1ccc([C@@H]2Sc3ccccc3NC(=O)[C@@H]2O)cc1 [Compound 6] |  |  | effect on L444P GC activity (L444P GC; [1]): do not increase L444P GC activity; toxicity to L444P fibroblasts (L444P fibroblasts): toxic
10 | O=[N+]([O-])c1cc2nc(O)c(O)nc2cc1[N+](=O)[O-] [DNQX] | only diltiazem and verapamil |  | 
11 | Cc1cc(-c2ccc(/N=N/c3ccc4c(S(=O)(=O)O)cc(S(=O)(=O)O)c(N)c4c3O)c(C)c2)ccc1/N=N/c1ccc2c(S(=O)(=O)O)cc(S(=O)(=O)O)c(N)c2c1O [Evans blue] | only diltiazem and verapamil |  | 
12 | COc1ccc(CCCOC(Cn2ccnc2)c2ccc(OC)cc2)cc1 (stereo not shown) [SKF 96365] | only diltiazem and verapamil |  | 
13 | C=CCN=C=S [allylisothiocyanate] |  | Only ruthenium red notably increased | 
14 | CCCCc1oc2ccccc2c1C(=O)c1cc(I)c(OCCN(CC)CC)c(I)c1 [amiodarone] | only diltiazem and verapamil |  | 
15 | CCCCC/C=C\C/C=C\C/C=C\C/C=C\CCCC(=O)NCCO [anandamide] |  | Only ruthenium red notably increased | 
16 | CC(C)COCC(CN(Cc1ccccc1)c1ccccc1)N1CCCC1 (stereo not shown) [bepridil] | only diltiazem and verapamil |  | 
17 | CC12CCC(CC1=O)C2(C)C (stereo not shown) [camphor] |  | Only ruthenium red notably increased | 
18 | COc1cc(CNC(=O)CCCC/C=C/C(C)C)ccc1O [capsaicin] |  | Only ruthenium red notably increased | 

Row | SMILES | L444P GC activity, screen of VGCC blockers, ionotropic glutamate receptor inhibitors and other calcium channel blockers (L444P GC) | L444P GC activity, screen of fifteen thermosensitive TRP channel modulators (L444P GC) | other results
19 | Oc1cc2c(cc1O)CN(C(=S)NCCc1ccc(Cl)cc1)CCC2 [capsazepine] |  | Only ruthenium red notably increased | 
20 | O=C/C=C/c1ccccc1 [cinnamaldehyde] |  | Only ruthenium red notably increased | 
21 | COc1cc(/C=C/C(=O)CC(=O)/C=C/c2ccc(O)c(OC)c2)ccc1O [curcumin] |  |  | folding and trafficking of ΔF508 CFTR (ΔF508 CFTR): enhance folding and trafficking of ΔF508 CFTR
22 | CCC1(C)CC(=O)NC1=O (stereo not shown) [ethosuximide] | only diltiazem and verapamil |  | 
23 | CC12CCC(CC1)C(C)(C)O2 [eucalyptol] |  | Only ruthenium red notably increased | 
24 | NC(=O)OCC(COC(N)=O)c1ccccc1 [felbamate] | only diltiazem and verapamil |  | 
25 | Fc1ccc(C(c2ccc(F)cc2)N2CCN(C/C=C/c3ccccc3)CC2)cc1 [flunarizine] | only diltiazem and verapamil |  | 
26 | O=C1NC(c2cccc([N+](=O)[O-])c2)=CCN1c1ccccc1O [icilin] |  | Only ruthenium red notably increased | 
27 | CN(C)C(=O)C(CCN1CCC(O)(c2ccc(Cl)cc2)CC1)(c1ccccc1)c1ccccc1 [loperamide] | only diltiazem and verapamil |  | 
28 | CC1CCC(C(C)C)C(O)C1 (stereo not shown) [menthol] |  | Only ruthenium red notably increased | 
29 | COCC(=O)O[C@]1(CCN(C)CCCc2nc3ccccc3[nH]2)CCc2cc(F)ccc2[C@@H]1C(C)C [mibefradil] | only diltiazem and verapamil |  | 
30 | COCCOC(=O)C1=C(C)NC(C)=C(C(=O)OC(C)C)C1c1cccc([N+](=O)[O-])c1 (stereo not shown) [nimodipine] | only diltiazem and verapamil |  | 
31 | CCCCCCCC/C=C\CCCCCCCC(=O)NCc1ccc(O)c(OC)c1 [olvanil] |  | Only ruthenium red notably increased | 
32 | O=C(/C=C/C=C/c1ccc2c(c1)OCO2)N1CCCCC1 [piperine] |  | Only ruthenium red notably increased | 
33 | C=C(C)[C@]12C[C@@H](C)[C@@]34O[C@](Cc5ccccc5)(O[C@@H]1[C@@H]3C=C(COC(=O)Cc1ccc(O)c(OC)c1)C[C@]1(O)C(=O)C(C)=C[C@@H]41)O2 [resiniferatoxin] |  | Only ruthenium red notably increased | 
34 | N.N.N.N.N.N.N.N.N.N.N.N.N.N.[Cl-].[Cl-].[Cl-].[Cl-].[Cl-].[Cl-].[O-2].[O-2].[Ru+3].[Ru+3].[Ru+4] [ruthenium red] |  | notably increased | 
35 | C/C=C(/C)C(=O)O[C@H]1C(C)=C2[C@H]([C@@H]1OC(=O)CCCCCCC)[C@@](C)(OC(C)=O)C[C@H](OC(=O)CCC)[C@@]1(O)[C@H]2OC(=O)[C@@]1(C)O [thapsigargin] |  |  | L444P GC folding, trafficking, or lysosomal activity (L444P GC; Figure S4): does not enhance L444P GC folding, trafficking, or lysosomal activity; influence on L444P GC activity at higher concentration (L444P GC; alone, above 1 nM, 7-d incubation, Figure S4): decreased L444P GC activity significantly; influence on L444P GC activity at low concentration (L444P GC; alone, until 1 nM, 7 d, Figure S4): no influence on GC activity; L444P GC activity on co-application with diltiazem (L444P GC; varying concentrations with 10 μM diltiazem, 7 d, Figure S4): dose-dependent decrease of GC activity; folding and trafficking of ΔF508 CFTR (ΔF508 CFTR): enhance folding and trafficking of ΔF508 CFTR
